US20240025883A1, “PYRIMIDIN-2-YL SULFONAMIDE DERIVATIVES” (Hoffmann-La Roche Inc., priority 2021, published 2024)

Target: human GPR17 short isoform (Homo sapiens (Human), UniProt Q13304)
Assay: GPR17 cAMP assay (hGPR17 cAMP, antagonist mode against EC80 of MDL29,951)
Assay type: cell-based
Settings: CHO-K1 cells stably expressing human GPR17 short isoform; EC80 of agonist MDL29,951; forskolin 15 μM
Method: GPR17 cAMP Assay Protocol:
CHO-K1 cells stably expressing vector containing untagged human GPR17 short isoform (Roche) were cultured at 37° C./5% CO2 in DMEM (Dulbecco's Modified Eagle Medium):F-12 (1:1) supplemented with 10% foetal bovine serum and 400 μg/ml Geneticin.
Changes in intracellular cyclic adenosine monophosphate (cAMP) levels were quantified using the Nano-TRF Detection Assay kit (Roche Diagnostics, Cat. No. 05214386001). This assay allows for direct cAMP quantification in a homogeneous solution, cAMP is detected based on time-resolved fluorescence energy transfer (TR-FRET) and competitive binding of ruthenylated cAMP and endogenous cAMP to an anti-cAMP monoclonal antibody labeled with AlexaFluor-700. The Ruthenium complex serves as the FRET donor and transfers energy to AlexaFluor-700. The FRET signal is inversely proportional to the cAMP concentration.
CHO-GPR17S cells were detached with Accutase and resuspended in assay buffer consisting of Hank's Balanced Salt Solution (HBSS), 10 mM HEPES (4-(2-hydroxyethyl) piperazine-1-ethanesulfonic acid solution) and 0.1% bovine serum albumin (pH 7.4). The cells were seeded in black 384-well plates (Corning) at a density of 10,000 cells/20 μl assay buffer until the addition of compounds.
Test antagonist compounds were serially diluted in dimethyl sulfoxide (DMSO) and spotted in 384-well plates. The compounds were then diluted in HBSS buffer supplemented with an EC80 concentration of MDL29,951 (3-(2-Carboxy-4,6-dichloroindol-3-yl)propionic acid) (GPR17 agonist) plus 3-Isobutyl-1-methylxanthine (IBMX) (0.5 mM final concentration) and added to the cells at room temperature. Forskolin (15 μM final concentration) was added 5 minutes after the test compounds and the cells were incubated at room temperature for 30 minutes. The assay was stopped by adding cAMP detection mix (containing detergents for cell lysis) for 90 minutes at room temperature.
Cellular cAMP was measured using a Paradigm reader (Molecular Devices). The raw data was used to calculate the FRET signal based on the assay's P-factor as per cAMP kit instructions. The data was normalized to the maximal activity of a reference antagonist and dose response curves were fitted to the percent activity of the test compounds using a sigmoidal dose response model (Genedata Screener).

Chain of human GPR17 short isoform (Q13304 29-367): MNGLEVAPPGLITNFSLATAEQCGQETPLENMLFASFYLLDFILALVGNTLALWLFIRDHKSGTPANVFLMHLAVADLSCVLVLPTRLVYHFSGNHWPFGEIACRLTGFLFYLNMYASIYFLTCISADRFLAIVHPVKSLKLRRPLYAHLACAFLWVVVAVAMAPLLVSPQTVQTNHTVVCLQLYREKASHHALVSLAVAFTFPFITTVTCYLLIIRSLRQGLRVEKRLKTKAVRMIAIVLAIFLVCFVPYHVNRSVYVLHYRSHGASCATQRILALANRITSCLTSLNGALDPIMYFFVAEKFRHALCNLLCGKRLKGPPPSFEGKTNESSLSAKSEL

Row | SMILES | IC50 [nM]
1 | COc1nc(NS(=O)(=O)c2c[nH]c3cc(Cl)ccc23)ncc1OCCC(F)F [Example 39, 6-chloro-N-[5-(3,3-difluoropropoxy)-4-methoxy-pyrimidin-2-yl]-1H-indole-3-sulfonamide] | 287
2 | COc1nc(NS(=O)(=O)c2c[nH]c3cc(Cl)ccc23)ncc1OCCC(F)(F)F [Example 40, 6-chloro-N-[4-methoxy-5-(3,3,3-trifluoropropoxy)pyrimidin-2-yl]-1H-indole-3-sulfonamide] | 628
3 | COc1nc(NS(=O)(=O)c2c[nH]c3cc(Cl)ccc23)ncc1OC(F)(F)CF [Example 41, 6-chloro-N-[4-methoxy-5-(1,1,2-trifluoroethoxy)pyrimidin-2-yl]-1H-indole-3-sulfonamide] | 21
4 | COc1nc(NS(=O)(=O)c2c[nH]c3cc(Cl)ccc23)ncc1OC(C)(F)F [Example 42, 6-chloro-N-[5-(1,1-difluoroethoxy)-4-methoxy-pyrimidin-2-yl]-1H-indole-3-sulfonamide] | 194
5 | COc1nc(NS(=O)(=O)c2c[nH]c3cc(Cl)ccc23)ncc1OC(F)(F)C(F)F [Example 43, 6-chloro-N-[4-methoxy-5-(1,1,2,2-tetrafluoroethoxy)pyrimidin-2-yl]-1H-indole-3-sulfonamide] | 60
6 | COc1nc(NS(=O)(=O)c2c[nH]c3cc(Cl)ccc23)ncc1OC(F)(F)C(F)Cl (centres unmarked) [Example 44, 6-chloro-N-[5-(2-chloro-1,1,2-trifluoro-ethoxy)-4-methoxy-pyrimidin-2-yl]-1H-indole-3-sulfonamide] | 131
7 | CCCc1cnc(NS(=O)(=O)c2c[nH]c3cc(Cl)ccc23)nc1OC [Example 45, 6-chloro-N-(4-methoxy-5-propyl-pyrimidin-2-yl)-1H-indole-3-sulfonamide] | 82
8 | COc1nc(NS(=O)(=O)c2c[nH]c3cc(Cl)ccc23)ncc1CC1CC1 [Example 46, 6-chloro-N-[5-(cyclopropylmethyl)-4-methoxy-pyrimidin-2-yl]-1H-indole-3-sulfonamide] | 918
9 | COc1nc(NS(=O)(=O)c2c[nH]c3cc(Cl)ccc23)ncc1CCC(F)F [Example 48, 6-chloro-N-[5-(3,3-difluoropropyl)-4-methoxy-pyrimidin-2-yl]-1H-indole-3-sulfonamide] | 26
10 | COCCc1cnc(NS(=O)(=O)c2c[nH]c3cc(Cl)ccc23)nc1OC [Example 49, 6-chloro-N-[4-methoxy-5-(2-methoxyethyl)pyrimidin-2-yl]-1H-indole-3-sulfonamide] | 809
11 | COc1nc(NS(=O)(=O)c2c[nH]c3cc(Cl)ccc23)ncc1C1COC1 [Example 50, 6-chloro-N-[4-methoxy-5-(oxetan-3-yl)pyrimidin-2-yl]-1H-indole-3-sulfonamide] | 2790
12 | COc1nc(NS(=O)(=O)c2c[nH]c3cc(Cl)ccc23)nc(OC)c1OCF [Example 51, 6-chloro-N-[5-(fluoromethoxy)-4,6-dimethoxy-pyrimidin-2-yl]-1H-indole-3-sulfonamide] | 94
13 | COc1nc(NS(=O)(=O)c2c[nH]c3cc(Cl)ccc23)nc(OC)c1OC(F)F [Example 52, 6-chloro-N-[5-(difluoromethoxy)-4,6-dimethoxy-pyrimidin-2-yl]-1H-indole-3-sulfonamide] | 32
14 | COc1nc(NS(=O)(=O)c2c[nH]c3cc(Cl)ccc23)nc(OC)c1OCCF [Example 53, 6-chloro-N-[5-(2-fluoroethoxy)-4,6-dimethoxy-pyrimidin-2-yl]-1H-indole-3-sulfonamide] | 11
15 | C=CCc1c(OC)nc(NS(=O)(=O)c2c[nH]c3cc(Cl)ccc23)nc1OC [Example 56, N-(5-allyl-4,6-dimethoxy-pyrimidin-2-yl)-6-chloro-1H-indole-3-sulfonamide] | 13
16 | CC#Cc1c(OC)nc(NS(=O)(=O)c2c[nH]c3cc(Cl)ccc23)nc1OC [Example 57, 6-chloro-N-(4,6-dimethoxy-5-prop-1-ynyl-pyrimidin-2-yl)-1H-indole-3-sulfonamide] | 34
17 | CCCc1c(OC)nc(NS(=O)(=O)c2c[nH]c3cc(Cl)ccc23)nc1OC [Example 58, 6-chloro-N-(4,6-dimethoxy-5-propyl-pyrimidin-2-yl)-1H-indole-3-sulfonamide] | 17
18 | COc1nc(NS(=O)(=O)c2c[nH]c3cc(Cl)ccc23)nc(OC)c1CCF [Example 59, 6-chloro-N-[5-(2-fluoroethyl)-4,6-dimethoxy-pyrimidin-2-yl]-1H-indole-3-sulfonamide] | 13
19 | COc1nc(NS(=O)(=O)c2c[nH]c3cc(Cl)ccc23)nc(OC)c1CC(F)F [Example 60, 6-chloro-N-[5-(2,2-difluoroethyl)-4,6-dimethoxy-pyrimidin-2-yl]-1H-indole-3-sulfonamide] | 8
20 | COc1nc(NS(=O)(=O)c2c[nH]c3cc(Cl)ccc23)nc(OC)c1CCCF [Example 61, 6-chloro-N-[5-(3-fluoropropyl)-4,6-dimethoxy-pyrimidin-2-yl]-1H-indole-3-sulfonamide] | 7
21 | COc1nc(NS(=O)(=O)c2c[nH]c3cc(Cl)ccc23)nc(OC)c1CCC(F)F [Example 62, 6-chloro-N-[5-(3,3-difluoropropyl)-4,6-dimethoxy-pyrimidin-2-yl]-1H-indole-3-sulfonamide] | 12
22 | COc1nc(NS(=O)(=O)c2c[nH]c3cc(Cl)ccc23)nc(OC)c1CC(C)(F)F [Example 63, 6-chloro-N-[5-(2,2-difluoropropyl)-4,6-dimethoxy-pyrimidin-2-yl]-1H-indole-3-sulfonamide] | 182
23 | COc1nc(NS(=O)(=O)c2c[nH]c3cc(Cl)ccc23)nc(OC)c1CCC(F)(F)F [Example 64, 6-chloro-N-[4,6-dimethoxy-5-(3,3,3-trifluoropropyl)pyrimidin-2-yl]-1H-indole-3-sulfonamide] | 39
24 | COCc1c(OC)nc(NS(=O)(=O)c2c[nH]c3cc(Cl)ccc23)nc1OC [Example 65, 6-chloro-N-[4,6-dimethoxy-5-(methoxymethyl)pyrimidin-2-yl]-1H-indole-3-sulfonamide] | 61
25 | COCCc1c(OC)nc(NS(=O)(=O)c2c[nH]c3cc(Cl)ccc23)nc1OC [Example 66, 6-chloro-N-[4,6-dimethoxy-5-(2-methoxyethyl)pyrimidin-2-yl]-1H-indole-3-sulfonamide] | 19
26 | COc1nc(NS(=O)(=O)c2c[nH]c3cc(Cl)ccc23)nc(OC)c1CC#N [Example 67, 6-chloro-N-[5-(cyanomethyl)-4,6-dimethoxy-pyrimidin-2-yl]-1H-indole-3-sulfonamide] | 65
27 | COc1nc(NS(=O)(=O)c2c[nH]c3cc(Cl)ccc23)nc(OC)c1CCC#N [Example 68, 6-chloro-N-[5-(2-cyanoethyl)-4,6-dimethoxy-pyrimidin-2-yl]-1H-indole-3-sulfonamide] | 9
28 | COc1nc(NS(=O)(=O)c2c[nH]c3cc(Cl)ccc23)nc(OC)c1C1CC1 [Example 69, 6-chloro-N-(5-cyclopropyl-4,6-dimethoxy-pyrimidin-2-yl)-1H-indole-3-sulfonamide] | 14
29 | COCCOc1nc(NS(=O)(=O)c2c[nH]c3cc(Cl)ccc23)nc(OC)c1Br [Example 70, N-[5-bromo-4-methoxy-6-(2-methoxyethoxy)pyrimidin-2-yl]-6-chloro-1H-indole-3-sulfonamide] | 2740
